Entries after “also recorded” stand apart in the source; their conditions may differ.
What was measured:
shelterin complex [1] = molecular target: T1, shelterin complex (Homo sapiens, UniProt P54274); test: Mass photometry assay of TRF1 eviction from shelterin; format: biochemical
T1 construct: evicted full-length TRF1 from the shelterin complex; made in house; host or cells: Spodoptera frugiperda (Sf9) insect cells, MultiBac baculovirus
T1 sequence (P54274 1-439): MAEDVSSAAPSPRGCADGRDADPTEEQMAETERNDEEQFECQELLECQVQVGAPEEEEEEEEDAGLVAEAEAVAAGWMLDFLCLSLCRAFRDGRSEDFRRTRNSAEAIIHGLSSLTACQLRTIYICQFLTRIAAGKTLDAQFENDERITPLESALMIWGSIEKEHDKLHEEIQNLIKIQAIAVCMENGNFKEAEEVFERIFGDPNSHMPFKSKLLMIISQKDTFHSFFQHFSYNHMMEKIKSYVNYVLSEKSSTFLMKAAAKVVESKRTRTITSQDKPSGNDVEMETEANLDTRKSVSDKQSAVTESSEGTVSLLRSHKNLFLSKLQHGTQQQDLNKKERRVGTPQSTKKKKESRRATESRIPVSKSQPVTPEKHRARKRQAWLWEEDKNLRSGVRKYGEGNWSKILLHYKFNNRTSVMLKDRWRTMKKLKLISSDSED
From the text: We developed a mass-photometry based assay to evaluate the ability of compound 40 to disrupt the TRF1TRFH:TIN2TBM interaction and subsequently evict TRF1 from the full shelterin complex. We expressed recombinant shelterin in insect cells (see Materials and Methods) and purified it via affinity and size exclusion chromatography (SEC). Given the compositional heterogeneity of shelterin, also observed by Zinder et al. 2022[42], we enriched a complex of approximately 700 kDa by serial SEC. The resulting complex was incubated with increasing concentrations of compound 40, and the resulting mass distribution was analysed by mass photometry. Due to disassembly of the complex upon dilution to nanomolar concentrations required for mass photometry, we stabilised it by limited crosslinking using glutaraldehyde prior to dilution to assess potential TRF1 dissociation (Supplementary Fig. 6). With increasing concentrations of compound 40, we observed an increase in a peak around 100 kDa, corresponding in size to the full-length TRF1 dimer (Fig. 6a; Supplementary Fig. 7a, b), consistent with eviction of TRF1 from shelterin. […] Additionally, the mass photometry peak of shelterin shifted and reduced in size by approximately 100 kDa upon the addition of > 250 µM of compound 40, indicating the removal of TRF1 from the complex (Fig. 6a). To confirm whether the evicted entity corresponds to TRF1, we analysed the full shelterin complex by SDS-PAGE, upon co-incubation with increasing amounts of compound 40 or control compound 60 and subsequent mild crosslinking, analogous to the mass photometry experiment. […] To confirm its identity, we performed Western blotting, probing for TRF1, TRF2 and TIN2. This analysis confirmed that the released protein is TRF1 (Fig. 6c, f).
Mass Photometry (MP) experiments were performed using a Refeyn OneMP instrument. […] Data were processed and analysed using Refeyn DiscoverMP software (v2024 R2). Gaussian fits for the mass distribution histograms, mass measurements and percentage abundances (of peak counts to total counts) were determined for each peak observed.

shelterin complex [2] = molecular target: T1, shelterin complex; test: SDS-PAGE/Western blot of crosslinked shelterin after compound incubation; format: biochemical
From the text: We developed a mass-photometry based assay to evaluate the ability of compound 40 to disrupt the TRF1TRFH:TIN2TBM interaction and subsequently evict TRF1 from the full shelterin complex. We expressed recombinant shelterin in insect cells (see Materials and Methods) and purified it via affinity and size exclusion chromatography (SEC). Given the compositional heterogeneity of shelterin, also observed by Zinder et al. 2022[42], we enriched a complex of approximately 700 kDa by serial SEC. The resulting complex was incubated with increasing concentrations of compound 40, and the resulting mass distribution was analysed by mass photometry. […] To confirm whether the evicted entity corresponds to TRF1, we analysed the full shelterin complex by SDS-PAGE, upon co-incubation with increasing amounts of compound 40 or control compound 60 and subsequent mild crosslinking, analogous to the mass photometry experiment. […]
For SDS-PAGE and Western blotting studies, SEC-purified shelterin was diluted to 0.9 µM and incubated with increasing concentrations of compound 40 or 60 (negative control) in the same range as for the MP experiment (from 0 to 300 µM). […] The samples were then analysed by SDS-PAGE, followed by either Coomassie staining or Western blotting. […] Normalised signal intensities from three independent experiments were analysed and plotted using GraphPad Prism (v10.5.0).

- concentration at which TRF1 eviction reaches a plateau (shelterin complex [1]; 1.25 µM shelterin, 100-300 µM compound, 1 h, glutaraldehyde crosslinking, n = 1): 250 µM
- reduction in size of shelterin mass photometry peak (shelterin complex [1]; upon addition of > 250 µM compound): around 100 kDa
- release of TRF1 (species migrating between 100 and 150 kDa) (shelterin complex [2]; 0.9 µM shelterin, 0-300 µM compound, 0.075% glutaraldehyde): dose-dependently liberated
- release of TRF2 and TIN2 from shelterin (shelterin complex [2]; Western blot probing for TRF2 and TIN2): TRF2 was not released, nor was TIN2
SMILES: COc1cc(COc2ccc(S(=O)(=O)[O-])c3ccccc23)cc(OC)c1.[Na+] [Compound 40]
- eviction of TRF1 from shelterin (100-kDa TRF1 peak) (shelterin complex [1]; compound 40 at 100-300 µM, compound 60 at 300 µM): expels TRF1 from purified shelterin; also recorded: concentration-dependent increase in eviction of TRF1
